Data published in patent publication US11998544B2, “Methods of using splicing modulators” (EISAI R&D MANAGEMENT CO., LTD., priority 2018, dated 2024).

What was measured:
CT26 syngeneic tumors = assay: Efficacy study, mouse colon cancer syngeneic model (CT26); assay type: in vivo; conditions: Balb/c mice with CT26 tumors; Compound 1 at any dose level or schedule; FIG. 1A
Experimental: Efficacy Study Protocol: Mouse Colon Cancer Syngeneic Model
CT26 colon cancer cells (0.25×10^6; ATCC Cat # CRL-2638) were implanted subcutaneously into the right flank of eight-week old female Balb/c mice (Envigo) in 100 μL of PBS lacking matrigel. CT26 tumors were allowed to grow to an average of ˜100 mm^3 before animals were enrolled onto the efficacy study. Each treatment group contained 12 mice. Mice were treated with Compound 1, an anti-CTLA4 antibody (Bio X Cell Catalog Number: BE0164 (αCTLA4 9D9)), or a combination at doses and routes of administration as shown in FIG. 1. Compound 1 was formulated in a composition containing 5% ethanol and 95% methylcellulose solution (0.5% methylcellulose. The anti-CTLA4 antibody was formulated in phosphate buffer solution at pH 7.0. Tumors were measured 3 times per week for up to 19 days. Tumor volumes were calculated using the ellipsoid formula: Tumor Volume=(length×width^2)/2

SF3b1 mutant cell lines = conditions: previously shown, U.S. Pat. No. 9,481,669 B2 and PCT/US2016/062525, cited from earlier work
[1] = in vivo; cited from earlier work

| Molecule | antitumor activity (growth curves compared to vehicle treated controls) (CT26 syngeneic tumors) | cellular lethality (SF3b1 mutant cell lines; SF3b1 mutant cell lines) | splicing modulator activity (SF3b1 mutant cell lines) | plasma half-life [1] |
| --- | --- | --- | --- | --- |
| C/C(=C\C=C\[C@@H](C)c1ccccn1)[C@H]1OC(=O)C[C@H](O)CC[C@@](C)(O)[C@@H](OC(=O)N2CCN(C)CC2)/C=C/[C@@H]1C [Compound 1, (2S,3S,6S,7R,10R,E)-7,10-dihydroxy-3,7-dimethyl-12-oxo-2-((R,2E,4E)-6-(pyridin-2-yl)hepta-2,4-dien-2-yl)oxacyclododec-4-en-6-yl 4-methylpiperazine-1-carboxylate] | did not result in noticeable antitumor activity | cellular lethality in SF3b1 mutant cell lines | demonstrate splicing modulator activity |  |
| Ipilimumab: fully human anti-CTLA4 antibody, an IgG1 |  |  |  | 12 to 14 days |
| tremelimumab: fully human anti-CTLA4 antibody, an IgG2 |  |  |  | approximately 22 days |
